Our source for the MIC and IC50 values is PMC7369796, “The Diverse Piscidin Repertoire of the European Sea Bass (Dicentrarchus labrax): Molecular Characterization and Antimicrobial Activities” (International Journal of Molecular Sciences, 2020).

Read-outs that look alike come from different tables or passages of the source. Ends that are not written are not given here.

Assay [1] has as its system P. damselae subsp. damselae (DSM 7482). The format is cell-based, Photobacterium damselae subsp. damselae. The conditions noted are these: DSM 7482, 24 h. Here is the method: (§1) The biological activity of sea bass piscidin mature peptides was studied by determining their antimicrobial properties. Synthetic piscidin peptides were based on the predicted coding sequences and were commercially produced (NZYtech, Lisbon, Portugal) with an additional C-terminal amidation (Table S3). Peptides were incubated in serial dilutions with ten bacterial strains, known to cause severe diseases in aquaculture: Photobacterium damselae subsp. piscicida (DSM 22834), P. damselae subsp. damselae (DSM 7482), Vibro anguillarum (DSM 21597), V. alginolyticus (DSM 2171), Aeromonas salmonicida subsp. salmonicida (DSM 19634), A. hydrophila subsp. hydrophila (DSM 30187), Yersinia ruckeri (DSM 18506), Edwardsiella tarda (DSM 30052), Lactococcus garviae (DSM 20684) and Streptococcus parauberis (DSM 6631). In short, 1 × 10^8 bacteria per milliliter were incubated in optimal growth conditions with the peptide in flat-bottom 96-well plates, in a final volume of 100 µL, and OD was read at 600 nm in a plate reader after 24 h of incubation. Wells with no added peptide were used as controls, and wells without bacteria were used as blanks. The minimal inhibitory concentration (MIC) was determined as the lowest concentration of piscidin that reduced 50% of bacterial growth when compared to the controls. The MICs reported correspond to representative results from two independent experiments.

Assay [2] concerns Vibro anguillarum (DSM 21597). The format is cell-based, V. anguillarum. The conditions noted are these: DSM 21597, 24 h. The procedure:
as §1

In assay [3] the test system is Aeromonas salmonicida subsp. salmonicida (DSM 19634). It is filed as cell-based. The conditions noted are these: DSM 19634, 24 h. The procedure: as §1
Assay [4] has as its system Lactococcus garviae (DSM 20684). The format is cell-based. The conditions noted are these: DSM 20684, 24 h. The procedure:
as §1

Assay [5] has as its system Photobacterium damselae subsp. piscicida (DSM 22834). It is filed as cell-based. The conditions noted are these: DSM 22834, 24 h. The procedure:
as §1

In assay [6] the test system is Streptococcus parauberis (DSM 6631). It is filed as cell-based. Here is the method: as §1
The subject of assay [7] is V. alginolyticus (DSM 2171). The format is cell-based. The conditions noted are these: DSM 2171, 24 h. The procedure:
as §1

Assay [8] has as its system Yersinia ruckeri (DSM 18506). The format is cell-based. The conditions noted are these: DSM 18506, 24 h. Here is the method:
as §1

The subject of assay [9] is Trypanosoma brucei brucei bloodstream forms (strain Lister 427). Kind of assay: Antiparasitic activity (resazurin reduction, IC50). The conditions noted are these: T. brucei brucei bloodstream forms; 72 h, serial dilutions up to 100 µM, 96-well, 200 µL; resazurin reduction (fluorescence 544/590 nm); non-linear regression; means ± SD, two separate experiments. The format is cell-based. The procedure:
(§2) The anti-protozoal activity of sea bass piscidins was evaluated using two parasites: Trypanosoma brucei brucei bloodstream forms (strain Lister 427) and Leishmania infantum promastigotes (strain MHOM/MA/67/ITMAP-263). Parasites were incubated in optimal growth conditions with serial dilutions of the different peptides in flat-bottom 96-well plates, in a final volume of 200 µL, during 72 h. Cell metabolic activity was measured by resazurin reduction. Briefly, 20 µL of resazurin (50 µM) were added and incubated for 4 h. The fluorescence of resorufin, resulting from resazurin reduction by metabolically active cells, was measured at λex = 544 nm and λem = 590 nm in Synergy 2 (BioTek, Winooski, Vermont, USA). Cultures with no added peptide were used as negative controls and cultures with the reference drugs, namely pentamidine (10 nM) and miltefosine (40 µM) were used as positive controls for T. brucei and L. infantum inhibition assays, respectively. Wells with culture medium were used as blanks. Anti-parasitic effect was evaluated by the determination of IC50 value (concentration required to inhibit growth in 50%) and calculated by non-linear regression analysis using GraphPad Prism version 8.1.1 for Windows (GraphPad Software, San Diego, CA, USA). The IC50 reported correspond to representative results from two independent experiments.
On the technique in general: Alamar Blue is a resazurin reagent that responds to reducing activity.

Assay [10] has as its system Leishmania infantum promastigotes (strain MHOM/MA/67/ITMAP-263). It is filed as cell-based. The conditions noted are these: 72 h. Here is the method: as §2

The MIC is the smallest concentration in the dilution series that meets the test's criterion for growth inhibition. Low readings indicate greater potency, high ones weaker potency. One may read the IC50 as the concentration at which inhibition is half-maximal. As for FFHHIFRGIVHVGKTIHRLVTG-NH2 [Piscidin1], the minimum inhibitory concentration (MIC) in assay [1] is recorded as 15.0 ± 0.2 µM; in assay [2] it was 16.3 ± 0.6 µM; in assay [3] it was 64.2 ± 2.1 µM; in assay [4], 33.9 ± 3.8 µM; in assay [5], 7.4 ± 1.6 µM; in assay [6] (DSM 6631, 24 h), 2.4 ± 0.8 µM. Also, the MIC in [7] is reported as 34.8 ± 0.3 µM; in assay [8] it was 48.4 ± 3.8 µM. Also, the results for the IC50 in [9] and in assay [10] were 3.88 ± 0.11 µM and 5.2 ± 0.03 µM, respectively.

FIHHIFRGIINAGKSIGRFITG-NH2 [Piscidin4]: the MIC in assay [1] turned out to be 81.3 ± 9.5 µM; in [4], 48.8 ± 40.1 µM; in assay [5], 29.1 ± 12.0 µM; in assay [6] (DSM 6631, 24 h), 1.8 ± 1.8 µM. The IC50 is 3.24 ± 0.16 µM in [9] and 8.34 ± 0.81 µM in [10].

Take “FLGRFFRRTQAILRGARQGWRAHKAVSRYRDRYIPETDNNQEQP-NH2 [Piscidin2]”: the minimum inhibitory concentration (MIC) is 105.8 ± 22.1 µM in assay [1]; 146.1 ± 21.4 µM in [2]; 67.7 ± 0.2 µM in assay [3]; 9.1 ± 1.7 µM in [5]; 6.9 ± 2.8 µM in assay [6] (DSM 6631, 24 h); 66.2 ± 2.0 µM in assay [7]. Further, the minimum inhibitory concentration (MIC) in [8] amounted to 137.6 ± 3.1 µM. Besides, the IC50 in assay [9] was determined as 1.74 ± 0.13 µM; in assay [10] it was 5.52 ± 0.26 µM.

With “FLGRVKSMWSGVRNGYKAYKYQRNMAKMNKGYGPNWQQGGGQEPPADAQANDQPP-NH2 [Piscidin7]”, the values for the half-inhibitory concentration (IC50) in assay [9] and in assay [10] were 7.3 ± 0.32 µM and 66.77 ± 0.08 µM, respectively.

As to “LFGSLKAWFKGGKQASRDYKYQKDMAKMNKRYGPNWQQGGGQQPPANAQANDQPPADAQANDQPS-NH2 [Piscidin6, synthetic putative mature peptide of European sea bass piscidin 6, 65 aa, MT066195]”, the minimum inhibitory concentration (MIC) in assay [6] (S. parauberis, 1 × 10^8 bacteria/mL, 96-well, 100 µL, 24 h, OD 600 nm, serial dilutions up to 200 µM, MIC = lowest concentration that reduced 50% of bacterial growth vs controls, means ± SD, two separate experiments, N.A. = not active at the highest concentration tested) worked out at 87.7 ± 123.0 µM. For the same substance, the IC50 in assay [9] is 56.5 ± 1.61 µM.

With “LIGSLFRGAKAIFRGARQGWRAHKAVSRYRAGYVRRPVVYYHRVYP-NH2 [Piscidin5]”, the MIC in [1] is 14.8 ± 2.0 µM; in assay [2] it was 10.1 ± 2.7 µM; in [3] it was 47.9 ± 6.1 µM; in assay [4] it was 42.3 ± 16.4 µM; in assay [5], 3.3 ± 0.1 µM; in assay [6] (DSM 6631, 24 h), 1.3 ± 1.2 µM. Moreover, the values for the minimum inhibitory concentration (MIC) in [7] and in [8] were 36.9 ± 2.3 µM and 25.4 ± 1.8 µM, respectively. Besides, the IC50 in assay [9] is 4.42 ± 0.12 µM; in [10], 7.24 ± 0.61 µM.
